From patent US12202821B2, “Herbicidal compounds” (SYNGENTA CROP PROTECTION AG, priority 2019, dated 2025)

Tests used:
Type in all cases: in vivo
AMAPA [1] = experiment: Pre-emergence biological efficacy; conditions: evaluated after 13 days; for pest or weed control at 250 g/ha: 312 h, read-out: damage to plant (100=total damage to plant; 0=no damage to plant), AMAPA
Protocol: (§1) Pre-Emergence Biological Efficacy
(§2) Seeds of weeds and/or crops were sown in standard soil in pots. After cultivation for one day under controlled conditions in a glasshouse (at 24/16° C., day/night; 14 hours light; 65% humidity), the plants were sprayed with an aqueous spray solution derived from the formulation of the technical active ingredient in acetone/water (50:50) solution containing 0.5% Tween 20 (polyoxyethylene sorbitan monolaurate, CAS RN 9005-64-5) to give the desired final dose of test compound.
(§3) The test plants were then grown under controlled conditions in the glasshouse (at 24/16° C., day/night; 14 hours light; 65% humidity) and watered twice daily. After 13 days the test was evaluated (100=total damage to plant; 0=no damage to plant).

EPHHL [2] = experiment: Pre-emergence biological efficacy; conditions: evaluated after 13 days; for pest or weed control at 250 g/ha: 312 h, read-out: damage to plant (100=total damage to plant; 0=no damage to plant), EPHHL
Protocol: as §1, §2, §3

SETFA [3] = experiment: Pre-emergence biological efficacy; conditions: evaluated after 13 days; for pest or weed control at 250 g/ha: Setaria faberi, 312 h, read-out: damage to plant (100=total damage to plant; 0=no damage to plant), SETFA
Protocol: as §1, §2, §3

LOLPE [4] = experiment: Pre-emergence biological efficacy; conditions: evaluated after 13 days; for pest or weed control at 250 g/ha: 312 h, read-out: damage to plant (100=total damage to plant; 0=no damage to plant), LOLPE
Protocol: as §1, §2, §3

ECHCG [5] = experiment: Pre-emergence biological efficacy; conditions: evaluated after 13 days; for pest or weed control at 250 g/ha: Echinochloa crus-galli, 312 h, read-out: damage to plant (100=total damage to plant; 0=no damage to plant), ECHCG
Protocol: as §1, §2, §3

IPOHE [6] = experiment: Pre-emergence biological efficacy; conditions: evaluated after 13 days; for pest or weed control at 250 g/ha: Ipomoea hederacea, 312 h, read-out: damage to plant (100=total damage to plant; 0=no damage to plant), IPOHE
Protocol: as §1, §2, §3

AMAPA [7] = experiment: Post-emergence biological efficacy; conditions: evaluated after 13 days; for pest or weed control at 250 g/ha: 312 h, read-out: damage to plant (100=total damage to plant; 0=no damage to plant), AMAPA
Protocol: (§4) Post-Emergence Biological Efficacy
as §2, with “8 days” for “one day”
(§5) The test plants were then grown on under controlled conditions in a glasshouse (at 24/16° C., day/night; 14 hours light; 65% humidity) and watered twice daily. After 13 days the test was evaluated (100=total damage to plant; 0=no damage to plant).

EPHHL [8] = experiment: Post-emergence biological efficacy; conditions: evaluated after 13 days; for pest or weed control at 250 g/ha: 312 h, read-out: damage to plant (100=total damage to plant; 0=no damage to plant), EPHHL
Protocol: as §4
as §2, with “8 days” for “one day”
as §5

SETFA [9] = experiment: Post-emergence biological efficacy; conditions: evaluated after 13 days; for pest or weed control at 250 g/ha: Setaria faberi, 312 h, read-out: damage to plant (100=total damage to plant; 0=no damage to plant), SETFA
Protocol: as §4
as §2, with “8 days” for “one day”
as §5

LOLPE [10] = experiment: Post-emergence biological efficacy; conditions: evaluated after 13 days; for pest or weed control at 250 g/ha: 312 h, read-out: damage to plant (100=total damage to plant; 0=no damage to plant), LOLPE
Protocol: as §4
as §2, with “8 days” for “one day”
as §5

ELEIN = experiment: Post-emergence biological efficacy; conditions: evaluated after 13 days; for pest or weed control at 250 g/ha: 312 h, read-out: damage to plant (100=total damage to plant; 0=no damage to plant), ELEIN
Protocol: as §4
as §2, with “8 days” for “one day”
as §5

CHEAL = experiment: Post-emergence biological efficacy; conditions: evaluated after 13 days; for pest or weed control at 250 g/ha: Chenopodium album, 312 h, read-out: damage to plant (100=total damage to plant; 0=no damage to plant), CHEAL
Protocol: as §4
as §2, with “8 days” for “one day”
as §5

ECHCG [11] = experiment: Post-emergence biological efficacy; conditions: evaluated after 13 days; for pest or weed control at 250 g/ha: Echinochloa crus-galli, 312 h, read-out: damage to plant (100=total damage to plant; 0=no damage to plant), ECHCG
Protocol: as §4
as §2, with “8 days” for “one day”
as §5

DIGSA = experiment: Post-emergence biological efficacy; conditions: evaluated after 13 days; for pest or weed control at 250 g/ha: Digitaria sanguinalis, 312 h, read-out: damage to plant (100=total damage to plant; 0=no damage to plant), DIGSA
Protocol: as §4
as §2, with “8 days” for “one day”
as §5

IPOHE [12] = experiment: Post-emergence biological efficacy; conditions: evaluated after 13 days; for pest or weed control at 250 g/ha: Ipomoea hederacea, 312 h, read-out: damage to plant (100=total damage to plant; 0=no damage to plant), IPOHE
Protocol: as §4
as §2, with “8 days” for “one day”
as §5

Q: Which results are given for CCOC(=O)C1(C)CC(c2cc(-n3c(=O)n(C)c(=S)n(C)c3=O)c(F)cc2Cl)=NO1 (single isomer, unassigned) [Compound 47 (enantiomer A)]?
A: damage to plant (100=total damage to plant; 0=no damage to plant), AMAPA (AMAPA [1]; 250 g/ha): 100; damage to plant (100=total damage to plant; 0=no damage to plant), EPHHL (EPHHL [2]; 250 g/ha): 100; damage to plant (100=total damage to plant; 0=no damage to plant), SETFA (SETFA [3]; 250 g/ha): 100; damage to plant (100=total damage to plant; 0=no damage to plant), LOLPE (LOLPE [4]; 250 g/ha): 50; damage to plant (100=total damage to plant; 0=no damage to plant), ECHCG (ECHCG [5]; 250 g/ha): 60; damage to plant (100=total damage to plant; 0=no damage to plant), IPOHE (IPOHE [6]; 250 g/ha): 90; damage to plant (100=total damage to plant; 0=no damage to plant), AMAPA (AMAPA [7]; 250 g/ha): 100; damage to plant (100=total damage to plant; 0=no damage to plant), EPHHL (EPHHL [8]; 250 g/ha): 90; damage to plant (100=total damage to plant; 0=no damage to plant), SETFA (SETFA [9]; 250 g/ha): 100; damage to plant (100=total damage to plant; 0=no damage to plant), LOLPE (LOLPE [10]; 250 g/ha): 70; damage to plant (100=total damage to plant; 0=no damage to plant), ELEIN (ELEIN; 250 g/ha): 90; damage to plant (100=total damage to plant; 0=no damage to plant), CHEAL (CHEAL; 250 g/ha): 100; damage to plant (100=total damage to plant; 0=no damage to plant), ECHCG (ECHCG [11]; 250 g/ha): 100; damage to plant (100=total damage to plant; 0=no damage to plant), DIGSA (DIGSA; 250 g/ha): 100; damage to plant (100=total damage to plant; 0=no damage to plant), IPOHE (IPOHE [12]; 250 g/ha): 100

Q: How did the pest or weed control at 250 g/ha (AMAPA [1]) turn out when Cn1c(=S)n(C)c(=O)n(-c2cc(C3=NOC(C)(C(=O)O)C3)c(Cl)cc2F)c1=O (stereo not drawn) [Compound 45, 3-[2-chloro-5-(3,5-dimethyl-2,6-dioxo-4-thioxo-1,3,5-triazinan-1-yl)-4-fluoro-phenyl]-5-methyl-4H-isoxazole-5-carboxylic acid] was run?
A: 100%

Q: And the pest or weed control at 250 g/ha (EPHHL [2])?
A: 100%

Q: And the pest or weed control at 250 g/ha (SETFA [3])?
A: 100%

Q: What about the pest or weed control at 250 g/ha (LOLPE [4]) of the same compound?
A: 100%

Q: And the pest or weed control at 250 g/ha (ECHCG [5])?
A: 100%

Q: And the pest or weed control at 250 g/ha (IPOHE [6])?
A: 100%

Q: And the pest or weed control at 250 g/ha (AMAPA [7])?
A: 100%

Q: What about the pest or weed control at 250 g/ha (EPHHL [8]) of the same compound?
A: 100%

Q: What about the pest or weed control at 250 g/ha (SETFA [9]) of the same compound?
A: 100%

Q: What about the pest or weed control at 250 g/ha (LOLPE [10]) of the same compound?
A: 100%

Q: And the pest or weed control at 250 g/ha (ELEIN)?
A: 100%

Q: What about the pest or weed control at 250 g/ha (CHEAL) of the same compound?
A: 100%

Q: And the pest or weed control at 250 g/ha (ECHCG [11])?
A: 100%

Q: And the pest or weed control at 250 g/ha (DIGSA)?
A: 100%

Q: And the pest or weed control at 250 g/ha (IPOHE [12])?
A: 100%

Q: What does the source list for COC(=O)CO/N=C(\C)C1(C)CC(c2cc(-n3c(=O)n(C)c(=S)n(C)c3=O)c(F)cc2Cl)=NO1 (stereo not drawn) [Compound 299, methyl 2-[1-[3-[2-chloro-5-(3,5-dimethyl-2,6-dioxo-4-thioxo-1,3,5-triazinan-1-yl)-4-fluoro-phenyl]-5-methyl-4H-isoxazol-5-yl]ethylideneamino]oxyacetate]?
A: pest or weed control at 250 g/ha (AMAPA [1]): 100%; pest or weed control at 250 g/ha (EPHHL [2]): 90%; pest or weed control at 250 g/ha (SETFA [3]): 60%; pest or weed control at 250 g/ha (LOLPE [4]): 60%; pest or weed control at 250 g/ha (ECHCG [5]): 0%; pest or weed control at 250 g/ha (IPOHE [6]): 80%; pest or weed control at 250 g/ha (AMAPA [7]): 100%; pest or weed control at 250 g/ha (EPHHL [8]): 90%; pest or weed control at 250 g/ha (SETFA [9]): 100%; pest or weed control at 250 g/ha (LOLPE [10]): 90%; pest or weed control at 250 g/ha (ELEIN): 90%; pest or weed control at 250 g/ha (CHEAL): 100%; pest or weed control at 250 g/ha (ECHCG [11]): 100%; pest or weed control at 250 g/ha (DIGSA): 80%; pest or weed control at 250 g/ha (IPOHE [12]): 90%

Q: For CC(=O)OCC1(C)CC(c2cc(-n3c(=O)n(C)c(=S)n(C)c3=O)c(F)cc2Cl)=NO1 (stereo not drawn) [Compound 51, [3-[2-Chloro-5-(3,5-dimethyl-2,6-dioxo-4-thioxo-1,3,5-triazinan-1-yl)-4-fluoro-phenyl]-5-methyl-4H-isoxazol-5-yl]methyl acetate], which pest or weed control at 250 g/ha (AMAPA [1]) is on record?
A: 100%

Q: What about the pest or weed control at 250 g/ha (EPHHL [2]) of the same compound?
A: 100%

Q: And the pest or weed control at 250 g/ha (SETFA [3])?
A: 100%

Q: And the pest or weed control at 250 g/ha (LOLPE [4])?
A: 90%

Q: And the pest or weed control at 250 g/ha (ECHCG [5])?
A: 90%

Q: What about the pest or weed control at 250 g/ha (IPOHE [6]) of the same compound?
A: 80%

Q: And the pest or weed control at 250 g/ha (AMAPA [7])?
A: 100%

Q: What about the pest or weed control at 250 g/ha (EPHHL [8]) of the same compound?
A: 100%

Q: And the pest or weed control at 250 g/ha (SETFA [9])?
A: 100%

Q: And the pest or weed control at 250 g/ha (LOLPE [10])?
A: 50%

Q: What about the pest or weed control at 250 g/ha (ELEIN) of the same compound?
A: 80%

Q: And the pest or weed control at 250 g/ha (CHEAL)?
A: 100%

Q: What about the pest or weed control at 250 g/ha (ECHCG [11]) of the same compound?
A: 30%

Q: And the pest or weed control at 250 g/ha (DIGSA)?
A: 100%

Q: What about the pest or weed control at 250 g/ha (IPOHE [12]) of the same compound?
A: 90%
